Measured values published in paper PMC12294314, “Bioactive Properties of Persea americana Peel Extract and Their Role in Hypercholesterolemia Management and Cardiovascular Health” (Foods, 2025).
Read-outs that look alike come from different tables or passages of the source. Blank lines part the entries; values can stand above or below the compound they belong to.

Experiments:
Caco-2 cells [1] = assay: Permeation of extract compounds across Caco-2 monolayer (Papp); format: in vitro ADME, human
Procedure: (§1) The permeation of the extract in Caco-2 cells was evaluated for three phenolic compounds previously identified and quantified, namely chlorogenic acid, catechin, and epicatechin. […] After 6 h, a sample was collected from the basolateral side and analyzed by HPLC-DAD, using a LiChroCART® 250-4 LiChrospher® 100 RP-18 (5 μm) column (Merck KGaA, Darmstadt, Germany), following the conditions described in a previous study.

Caco-2 cells [2] = assay: Cholesterol permeation across differentiated Caco-2 monolayer; format: cell-based, human; settings: cholesterol 5 mM apical, 6 h, extract 0.240 mg/mL, ezetimibe 0.1 mM (methods) / 0.01 mM (Figure 3 legend)
Procedure: The cholesterol permeation assays were carried out by following the protocol described by Arantes et al.. Caco-2 cells were cultured in a 12-well microplate with inserts (A = 1.1 cm^2) and maintained until differentiation. To evaluate the integrity of the membrane, transepithelial electrical resistance (TEER) of the formed membrane was measured. When the TEER value exceeded 250 Ω·cm^2, it was considered that the membrane was formed.
Subsequently, 0.5 mL of the solutions to be analyzed was added on the apical side of each insert: cholesterol (5 mM) (control), extract (0.240 mg/mL), extract (0.240 mg/mL) with cholesterol (5 mM), and ezetimibe (0.1 mM) with cholesterol (5 mM). On the basolateral side, 1.5 mL of the Hank’s Balanced Salt Solution (HBSS) was added. The cells were incubated at 37 °C in a 5% CO2 atmosphere for 6 h. After this period, the basolateral solution of each well was collected and analyzed by high-performance liquid chromatography coupled to a diode-array detector (HPLC-DAD) using an Elite LaChrom® (HITACHI, VWR, Tokyo, Japan), with an Autosampler L-2200, a Column Oven L-2300, and a Diode Array Detector L 2455 (VWR, Radnor, PA, USA). The column used was LiChroCART® 250-4 LiCrosphere®100 RP-8 (5 μm) (Merk, Darmstadt, Germany). The conditions followed were the ones presented by Pinto et al.. […]

[3] = Permeation of extract compounds across Caco-2 monolayer (Papp); format: in vitro ADME, human; settings: human
Procedure: as §1

HepG2 cells = assay: Reactive oxygen species (ROS) production in HepG2 cells (DCFDA); format: cell-based, human; settings: TBHP 200 µM alone, 6 h, PBS control = 100%
Procedure: The quantification of reactive oxygen species (ROS) produced in the HepG2 cell line was assessed. HepG2 cells were plated at a concentration of 2.5 × 10^4 cells/well in a black, transparent-bottom 96-well microplate and incubated for 24 h. Afterward, a solution of the 2′,7′–dichlorodifluorescin diacetate (DCFDA) (0.1 mM) was added to the cells and they were incubated in the dark for 45 min. The solution was then removed, and the following samples were applied: a control with only the PBS, tert-butyl hydroperoxide (TBHP) at 200 µM, the extract at 0.164 mg/mL, and a combination of the extract and THBP with their final concentrations being 0.164 mg/mL and 200 µM, respectfully. The microplate was incubated for 6 h in the dark, after which fluorescence was measured with excitation at 495 nm and emission at 527 nm, both at 37 °C (SpectraMax® GEMINI XPS/EM, Molecular Devices®, San Jose, CA, USA). ROS production was determined using Equation (1) by considering that the fluorescence produced by the control group was 100%.(1) ROS Production % =AbsSample/AbsControl × 100 where AbsSample corresponds to the absorbance of the samples and AbsControl corresponds to the absorbance of the control. The assays were carried out in quadruplicate.

Compound: Oc1cc(O)c2c(c1)OC(c1ccc(O)c(O)c1)C(O)C2 (single isomer, unassigned; (+)) [Catechin (13), (+)-Catechin]
Papp (Caco-2 cells [1]; Caco-2): 14.4 10^−6 cm/s

Compound: O=C1[C@H](CC[C@H](O)c2ccc(F)cc2)[C@@H](c2ccc(O)cc2)N1c1ccc(F)cc1 [ezetimibe]
Reduction in cholesterol permeability (Caco-2 cells [2]): 62 ± 5%

Compound: CC(C)(C)OO [TBHP, tert-butyl hydroperoxide]
ROS production (% of control) (HepG2 cells): approximately 395%

Second part, the compound after the results:

Papp at 6 h, 0.24 mg/mL ([3]; Caco-2, apical sample: extract (0.240 mg/mL), Caco-2, 6 h, read-out: Papp): 6.5 ×10⁻⁶ cm/s
Papp at 6 h, 0.24 mg/mL ([3]; Caco-2, apical sample: extract, Caco-2, read-out: Permeability class (from Papp)): 1 to 10 ×10⁻⁶ cm/s
Compound: O=C(/C=C/c1ccc(O)c(O)c1)O[C@@H]1C[C@](O)(C(=O)O)C[C@@H](O)[C@H]1O [Chlorogenic Acid (3), Chlorogenic Acid]

Papp at 6 h, 0.24 mg/mL ([3]; Caco-2, Permeability class (from Papp)): > 10 ×10⁻⁶ cm/s
Papp (Caco-2 cells [1]; human, Caco-2, 6 h, 0.24 mg/mL): 24.0 10^−6 cm/s
Compound: Oc1cc(O)c2c(c1)O[C@H](c1ccc(O)c(O)c1)[C@H](O)C2 [Epicatechin (15), (−)-Epicatechin]
